We go through nine compounds from patent US6538029B1, “Methods for treatment of renal cell carcinoma” (Cell Pathways, priority 2002, dated 2003).

The structures appear in SMILES notation. Read-outs that look alike come from different tables or passages of the source.

One experiment addresses PDE10 from 786-O (Homo sapiens, UniProt Q9Y233). Nature of the experiment: Inhibition and kinetics of PDE10 from 786-O (pooled fractions of the center peak). The conditions noted are these: for IC50: pooled center-peak fractions. Type of experiment: biochemical. The method, then: (§1) Fractions were pooled from a 786-O profile from the center peak.
as §1
(§2) Protein assays were determined using the Bio-Rad DC Protein Assay. A nonlinear regression to the Michalis-Menten equation in Prism was used to determine the Km and Vmax.
as §2

The target in experiment [1] is cloned and expressed human PDE10 (Homo sapiens, UniProt Q9Y233). The conditions noted are these: cited from earlier work; for Published IC50s on cloned PDE10, cAMP / Published IC50s on cloned PDE10, cGMP / IC50: literature values.
Sequence of cloned and expressed human PDE10 (Q9Y233 1-779 isoform Q9Y233-1): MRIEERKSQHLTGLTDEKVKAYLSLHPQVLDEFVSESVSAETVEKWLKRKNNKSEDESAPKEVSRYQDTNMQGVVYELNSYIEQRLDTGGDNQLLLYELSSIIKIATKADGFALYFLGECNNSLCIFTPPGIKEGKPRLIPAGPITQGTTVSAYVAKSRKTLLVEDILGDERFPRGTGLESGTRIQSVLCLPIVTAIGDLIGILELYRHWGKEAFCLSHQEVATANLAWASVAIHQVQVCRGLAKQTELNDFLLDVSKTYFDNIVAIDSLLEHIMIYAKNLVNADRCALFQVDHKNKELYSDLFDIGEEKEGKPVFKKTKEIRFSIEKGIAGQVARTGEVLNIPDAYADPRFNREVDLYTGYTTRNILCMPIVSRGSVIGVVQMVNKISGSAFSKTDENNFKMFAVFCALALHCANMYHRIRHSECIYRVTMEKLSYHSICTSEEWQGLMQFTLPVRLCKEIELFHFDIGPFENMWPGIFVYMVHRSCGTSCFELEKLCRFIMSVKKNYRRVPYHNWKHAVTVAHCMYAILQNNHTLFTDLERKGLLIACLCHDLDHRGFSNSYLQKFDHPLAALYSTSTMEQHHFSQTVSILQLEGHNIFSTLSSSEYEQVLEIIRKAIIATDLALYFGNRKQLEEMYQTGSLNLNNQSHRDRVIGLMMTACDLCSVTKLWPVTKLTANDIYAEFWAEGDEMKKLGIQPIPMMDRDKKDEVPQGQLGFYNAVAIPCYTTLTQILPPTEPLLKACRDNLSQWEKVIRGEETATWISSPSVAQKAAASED
Experiment [2] has as its system 786-O cells. Nature of the experiment: Apoptosis on 786-O cells (Roche Cell Death Assay). It is filed as cell-based, human. The conditions noted are these: 48 hours with drug. The method, then:
Testing of PDE10-Inhibiting Compounds for Apoptosis on Renal Carcinoma (786-O) Cells. […] After 24 hours, the media was removed and the same media containing the drug was added to the cells (0.1% DMSO final concentration). After 48 hours, apoptosis was detected using the Roche Cell Death Assay.

The test system of experiment [3] is 786-O cells. It is filed as cell-based. The conditions noted are these: Homo sapiens, 786-0, 144 h; 6 days with drug, sulforhodamine B. The method, then: Testing of Neoplastic Cell Growth Inhibition of PDE10-Inhibiting Compounds on Renal Cell Carcinoma (786-O) Cells. […] After 24 hours, the media was removed, and the same media containing the drug was added to the cells (0.1% DMSO final concentration).

[4] abbreviates: μM IC50s on PDE10 from 786-O, cAMP, cAMP substrate at 0.09 μM, table: N = 2 average, EHNA, Milrinone, Rolipram N = 1.
Setting [5] is: μM IC50s on PDE10 from 786-O, cGMP, cGMP substrate at 5.5 μM, table: N = 2 average, EHNA, Milrinone, Rolipram N = 1.
[6] abbreviates: read-out: μM IC50s on PDE10 from 786-O, cAMP, cAMP substrate at 0.09 μM, table: N = 2 average, EHNA, Milrinone, Rolipram N = 1.
[7] abbreviates: read-out: Published IC50s on cloned PDE10, cAMP, cAMP as substrate.
Where [8] appears, read: read-out: μM IC50s on PDE10 from 786-O, cGMP, cGMP substrate at 5.5 μM, table: N = 2 average, EHNA, Milrinone, Rolipram N = 1.
Setting [9] is: read-out: Published IC50s on cloned PDE10, cGMP, cGMP as substrate.

Sequence of PDE10 from 786-O (Q9Y233 290-1055 limits assumed): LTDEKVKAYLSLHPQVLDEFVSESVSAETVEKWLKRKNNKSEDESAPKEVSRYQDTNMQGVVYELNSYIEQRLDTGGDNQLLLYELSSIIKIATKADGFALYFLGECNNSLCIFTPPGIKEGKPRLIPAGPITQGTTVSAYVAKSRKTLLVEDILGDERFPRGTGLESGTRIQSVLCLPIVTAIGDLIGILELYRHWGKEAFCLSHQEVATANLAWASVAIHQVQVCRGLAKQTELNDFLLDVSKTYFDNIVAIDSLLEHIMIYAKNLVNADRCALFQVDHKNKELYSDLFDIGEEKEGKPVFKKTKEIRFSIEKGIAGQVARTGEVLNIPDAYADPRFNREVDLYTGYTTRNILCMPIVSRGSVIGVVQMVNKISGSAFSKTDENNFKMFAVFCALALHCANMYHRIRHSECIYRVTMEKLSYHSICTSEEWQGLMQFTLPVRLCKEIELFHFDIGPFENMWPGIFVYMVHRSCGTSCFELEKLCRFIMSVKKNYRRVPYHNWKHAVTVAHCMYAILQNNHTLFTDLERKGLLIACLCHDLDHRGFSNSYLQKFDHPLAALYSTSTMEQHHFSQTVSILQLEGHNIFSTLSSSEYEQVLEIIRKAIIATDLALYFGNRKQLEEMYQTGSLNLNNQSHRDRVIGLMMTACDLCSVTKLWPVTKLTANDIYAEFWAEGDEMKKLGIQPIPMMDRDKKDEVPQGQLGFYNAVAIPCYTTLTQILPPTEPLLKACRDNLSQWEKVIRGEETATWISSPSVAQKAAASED

Take `CCOC(=O)C1=C[C@]2(CC)CCCN3CCc4c(n1c1ccccc41)[C@@H]32` [Vinpocetine]: the IC50 on PDE10 from 786-O (setting [4]) stood at 38 µM; at PDE10 from 786-O (setting [5]), 45 µM. The “Published IC50s on cloned PDE10, cAMP” value in experiment [1] (cAMP as substrate) was 77 µM. Further, the “Published IC50s on cloned PDE10, cGMP” value in experiment [1] (cGMP as substrate) is 73 µM.
In the case of `Nc1nc2c(ncn2[C@@H]2O[C@@H]3COP(=O)(O)O[C@H]3[C@H]2O)c(=O)[nH]1` [cGMP, cyclic 3′,5′-guanosine monophosphate], the Km (commonly the concentration of substrate that gives half-maximal velocity) on PDE10 from 786-O (Michaelis-Menten plot, 30 min at 30° C., FIG. 4, 6, read-out: Km for the 786-O PDE) was 6.5 µM; on PDE10 from 786-O (pooled fractions 57-75 of PDE10, read-out: Km, average of three values (stdev in parenthesis)), 5.5 µM; in experiment [1] (Fujishige et al. 1999, read-out: Km published for cloned and expressed PDE10) it was 7.2 µM. Also, the Vmax (commonly the top rate of the reaction or transport when substrate is in excess) on PDE10 from 786-O (pooled center-peak fraction) turned out to be 461 pmol/min/mg. Besides, the IC50 at PDE10 from 786-O (setting [6]) was 5.2 µM; in experiment [1] (setting [7]) it was 14 µM. On PDE10 from 786-O (times higher than Vmax for cAMP), the “Vmax ratio of cGMP/cAMP” value amounted to 2.4. Besides, the “Vmax ratio of cGMP/cAMP, cloned and expressed PDE10” value in experiment [1] (Fujishige et al. 1999) is reported as 2.2.
Turning to `O=C(O)C1CCN(c2nc(NCc3ccc4c(c3)OCO4)c3cc(Cl)ccc3n2)CC1` [Example E4021], the IC50 on PDE10 from 786-O (setting [6]) was 2.8 µM; at PDE10 from 786-O (setting [8]), 3.2 µM; in experiment [1] (setting [7]), 7.2 µM; in experiment [1] (setting [9]) it was 4.2 µM.
`COc1cc(/C=C2/C(C)=C(CC(=O)NCc3ccccc3)c3cc(F)ccc32)cc(OC)c1OC` [Compound A, 1 H-indene-3-acetamide, 5-fluoro-2-methyl-N-(phenylmethyl)-1-[(3,4,5-trimethoxyphenyl)methylene]-, (1Z)]: the IC50 at PDE10 from 786-O (IC50 on PDE10 from 786-O (inhibition of cGMP PDE activity), FIG. 10) is 0.031 µM; in the experiment with 786-O cells [2] (Homo sapiens, 786-0, read-out: IC50 for induction of apoptosis in the 786-O cell line) it was 0.071 µM; with 786-O cells [3], 0.03 µM.
Turning to `CC1=C(CC(=O)O)c2cc(F)ccc2/C1=C\c1ccc(S(C)(=O)=O)cc1` [Exisulind, exisulind, reference compound], the IC50 is 134 µM at PDE10 from 786-O (IC50 on PDE10 from 786-O (inhibition of cGMP PDE activity), FIG. 8, 9) and 273 µM with 786-O cells [3]. Also, the “Induction of apoptosis in the 786-O cells” value in the experiment with 786-O cells [2] is on record as “did not show significant induction of apoptosis”.
On to `CCCCCC[C@@H]([C@@H](C)O)n1cnc2c(N)ncnc21` (racemic) [EHNA], for which the IC50 on PDE10 from 786-O (setting [6]) is 60 µM; at PDE10 from 786-O (setting [8]), 46 µM; in experiment [1] (setting [7]), > 100 µM; in experiment [1] (setting [9]), > 100 µM.
For the compound `CCCOc1ccccc1-c1nc2nn[nH]c2c(=O)[nH]1` [Zaprinast], the IC50 against PDE10 from 786-O (setting [4]) was 13 µM; at PDE10 from 786-O (setting [5]) it was 17 µM. Besides, the “Published IC50s on cloned PDE10, cGMP” value in experiment [1] (cGMP as substrate) is 14 µM.
For the compound `Cc1[nH]c(=O)c(C#N)cc1-c1ccncc1` [Milrinone], the IC50 against PDE10 from 786-O (setting [4]) turned out to be 84 µM; against PDE10 from 786-O (setting [5]) it was 103 µM. For the same compound, the “Published IC50s on cloned PDE10, cAMP” value in experiment [1] (cAMP as substrate) is >100 µM. For the same compound, the “Published IC50s on cloned PDE10, cGMP” value in experiment [1] (cGMP as substrate) is >100 µM.
With `CC(C)Cn1c(=O)n(C)c(=O)c2[nH]cnc21` [IBMX], the IC50 on PDE10 from 786-O (setting [6]) is 4.5 µM; on PDE10 from 786-O (setting [8]), 6.3 µM; in experiment [1] (setting [7]), 17 µM; in experiment [1] (setting [9]), 11 µM.
